Assay results as given in paper PMC9481538, “The interaction between LC8 and LCA5 reveals a novel oligomerization function of LC8 in the ciliary-centrosome system” (Scientific Reports, 2022).
Blank lines part the entries; values can stand above or below the substance they belong to. Where no end group is shown, it is not given here.

Key:
LC8 [1] = biological target: T1, LC8 (Homo sapiens, UniProt Q96FJ2); assay: direct fluorescence polarization titration of labeled BMF peptide with LC8; format: binding; conditions: 50 nM FITC-labeled BMF, PBS, 2 mM TCEP, 0.05% Brij, 25 °C
T1 construct: 6xHis (N); made in house; host or cells: E. coli BL21 (DE3) Rosetta
Method: Fluorescence polarization experiments were carried out at 25 °C in PBS supplemented by 2 mM TCEP and 0.05% Brij using a Synergy H4 (BioTek Instruments) plate reader. N-terminally fluorescein 5-isothiocyanate (FITC) labeled, known binding peptide of LC8, BMF (TSQEDKATQTL) was used as a reporter peptide to form LC8-BMF complex and LCA5 was applied to compete the BMF peptide. Briefly, 50 nM labeled BMF peptide was mixed with LC8 in a concentration to achieve 80% saturation, determined by direct titration (12 μM at 80% saturation). Subsequently, the above-mentioned complex was titrated with a two-fold dilution series of competitor LCA5 peptide (DLCTKGVQTME) (start at 500 μM) and the decrease of polarization was recorded. To determine the Kd of the LCA5-peptide-LC8 complex, first the Kd of the BMF-LC8 complex was calculated. The polarization signal recorded at direct titration of BMF peptide with LC8 was plotted against the concentration of LC8. Then the Kd of the BMF-LC8 complex was calculated by the fitting of a direct binding equation in Origin 8. To determinate the Kd of the competitor peptide, the measured polarization was plotted against the concentration of LCA5 peptide in the competitive titration and the data was fitted by the competitive binding equation in Origin 8 where Kd of the BMF-LC8 complex was one of the parameters of the competitive equation. […]

GST-fused LC8 = assay: GST pull-down of LC8 and sLCA5; format: binding; conditions: GST-LC8 bait, MBP-, 6x-His-fused sLCA5 prey, PBS, 1 mM DTT, room temperature; result in words
Method: For the pull-down experiments, GST-fused LC8 was used as bait, and MBP-, 6x-His-fused LCA5 variants as prey. For controls, GST and MBP were used. Proteins were expressed in 100 ml cultures of E. coli BL21 (DE3) Rosetta cells as described above. Cells were harvested, resuspended in 5 ml PBS supplemented with 1 mg/ml lysozyme and 1 mM DTT, sonicated and clarified by centrifugation. 20 μl of Glutathione Sepharose 4B (Macherey–Nagel) (75%) resin was used for each experiment. Baits were incubated with the resin for 1 h at room temperature, then washed with PBS supplemented with 1 mM DTT. Prey proteins were added and incubated for one hour. The beads were washed and eluted by boiling in a 2 × SDS sample buffer and analyzed in tricine SDS page according to the protocol of Schagger et al[43].

LC8 [2] = biological target: T1, LC8; assay: isothermal titration calorimetry, LCA5 peptide injected to LC8; format: binding; conditions: MicroCal PEAQ-ITC, PBS pH 7.4, 1 mM TCEP, 25 °C; peptide injected 18 x 2 μl into LC8
Method: (§1) LC8 and MBP-fused LCA5 constructs were prepared in PBS supplemented with 1 mM TCEP. Before measurement, protein samples were dialyzed overnight in PBS pH 7.4 (Orange Scientific, OrDial D14 membrane). Peptides were diluted from stock with the buffer used for dialysis. The concentration of samples was determined based on absorbance at 280 nm in the case of proteins, and 205 nm for the peptide. Experiments were performed using MicroCal PEAQ-ITC (Malvern Panalytical), LCA5 peptides were measured at 25 °C, proteins were analyzed at 37 °C. Lebercilin peptide was injected into the cell 18 times 2 μl volumes, with 5 min timing between injections. In case of the protein, LCA5 was placed in the sample cell, and LC8 was injected during 37 injections, 1 μl each. The results were evaluated using MicroCal PEAQ-ITC Analysis Software.

LC8 [3] = biological target: T1, LC8; conditions: literature, ref (6)-(10) of supplement, cited from earlier work
Description: According to the standard model of LC8 interactions, the dimeric interface of LC8 presents two interaction sites for partners which also form dimers, implying a 1:1 stoichiometry. Partners with two adjacent binding motifs, like ANA2, follow a 1:2 stoichiometry by binding two LC8[18]. Intriguingly, we observed a 2:1 LCA5:LC8 stoichiometry for the ΔCQS and the ΔVQT mutants, which means that one LC8 dimer binds four LCA5 chains (Supplementary Table S1). A reasonable interpretation is that the native LCA5 is dimeric and thus a pair of LCA5 dimers bind to one dimeric LC8. In such a situation, one i ... || page 10: Composition of complexes Number of LC8 Number of Ratio of LCA5 LC8 binding monomeric binding monomeric LC8 in monomers to LC8 Gene name sites partners in complex complex monomers SWA (6) 1 2 2 1:1 DYNC1I1 (7) 1 2 2 1:1 WDR34-WDR60 3 1+1 6 1:3 (8) ANA2 (9) 2 2 4 1:2 ASCIZ (10) 11 2 22 1:11 sLCA5-WT 2 4 4 1:1 sLCA5-single 1 4 2 2:1 mutants Supplementary Table S1. Stoichiometries of various LC8 binding partners in complex with LC8. Known LC8 binding partners according to literature data always form dimers upon LC8 binding. The stoichiometry is basically 1:1 in case of one LC8 binding sit ...

LC8 [4] = biological target: T1, LC8; assay: LC8 binding of the second (CQS) motif at the peptide level; conditions: residues 317–324 of LCA5; method not stated; result in words
Method: as §1, with “In case of the protein, LCA5 was placed in the sample cell, and LC8 was injected during 37 injections, 1 μl each.” left out
Fluorescence polarization experiments were carried out at 25 °C in PBS supplemented by 2 mM TCEP and 0.05% Brij using a Synergy H4 (BioTek Instruments) plate reader. […] Briefly, 50 nM labeled BMF peptide was mixed with LC8 in a concentration to achieve 80% saturation, determined by direct titration (12 μM at 80% saturation). Subsequently, the above-mentioned complex was titrated with a two-fold dilution series of competitor LCA5 peptide (DLCTKGVQTME) (start at 500 μM) and the decrease of polarization was recorded. To determine the Kd of the LCA5-peptide-LC8 complex, first the Kd of the BMF-LC8 complex was calculated. […]

T1 sequence (Q96FJ2 whole entry): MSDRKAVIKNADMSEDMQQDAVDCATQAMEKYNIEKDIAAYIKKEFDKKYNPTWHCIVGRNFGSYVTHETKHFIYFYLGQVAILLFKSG

- LC8 concentration at 80% saturation of labeled BMF peptide (LC8 [1]): 12 µM
Substance: TSQEDKATQTL [BMF]

Substance: CAAAAAAM: sLCA5 with further alanine mutations introduced into the VQT motif
- interaction with LC8 (GST pull-down) (GST-fused LC8): persisted despite the mutations

- Kd (LC8 [2]): 2.6 µM
Substance: DLCTKGVQTME [LCA5 peptide]

Substance: WDR34-WDR60: known LC8 binding partner, literature
- Number of monomeric LC8 in complex (LC8 [3]; composition of complexes): 6
- Number of monomeric binding partners in complex (LC8 [3]; composition of complexes): 1+1
- LC8 binding sites (LC8 [3]): 3

Substance: KNAACQSD
- binding of the second motif to LC8 at the peptide level (LC8 [4]): could not be verified at the peptide level
